Test results taken from patent publication US20200354404A1, “PEPT[…], […] AND USES THEREOF” (priority 2019, published 2020).
Values joined by “and” are separate entries in the source; they are usually repeats but may differ in a detail not shown here. Equal entries are not always repeated. Where two headings read alike, the source gives them in different places. Where no end group is shown, it is not given here.

Assays:
OPRM-1 receptor = OPRM-1 receptor (Homo sapiens, UniProt P35372); assay: Binding to OPRM-1; conditions: FIG. 10
OPRM-1 receptor, sequence (P35372 whole entry): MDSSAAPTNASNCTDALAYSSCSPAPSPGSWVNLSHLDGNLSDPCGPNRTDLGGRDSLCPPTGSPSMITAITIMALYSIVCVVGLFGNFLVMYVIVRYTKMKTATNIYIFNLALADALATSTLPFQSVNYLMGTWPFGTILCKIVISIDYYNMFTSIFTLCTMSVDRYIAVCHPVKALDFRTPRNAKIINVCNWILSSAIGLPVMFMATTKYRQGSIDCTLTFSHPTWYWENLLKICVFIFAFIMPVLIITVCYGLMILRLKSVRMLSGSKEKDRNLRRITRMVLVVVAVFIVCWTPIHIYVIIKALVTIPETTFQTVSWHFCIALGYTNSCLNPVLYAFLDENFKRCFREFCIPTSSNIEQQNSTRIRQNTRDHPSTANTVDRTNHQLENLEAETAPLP
Description: FIG. 10 are graphs depicting binding of K763 and Endomorphin-2 binding to OPRM-1.
The binding is depicted in FIG. 10.

[1] = Animal studies (protection); conditions: in vivo
in vitro [2] = conditions: mouse, mouse serum
in vivo = conditions: male, Sprague-Dawley, rat, 1 mg/kg; for AUC(0-t): AUClast; for AUC(0-t) / MRT last: iv 1 mg/kg; for MRT last: MRTlast
[3] = cited from earlier work
[4] = system: HMGB1-induced TNF secretion; assay: HMGB1-induced TNF secretion; format: cell-based; conditions: FIG. 7
[5] = iv 1 mg/kg
mice = assay: APAP-induced cytokines, liver enzymes and lethality in mice; format: in vivo
[6] = Stability of endomorphin-2 in mouse serum; format: in vitro ADME; conditions: read-out: amount (AUC O.D.254) in mouse serum less than amount originally placed
Description: In addition, as the result of the rapid hydrolysis and enzymatic degradation, a number of peptides are not stable enough to be used in drug discovery, diagnosis, prevention and treatment of diseases.
A graph of stability of EM2 and K763 in mice serum is depicted in FIG. 11.

in vitro [7] = conditions: mouse, serum
Description: Stability of Bradykinin amide and (1-9)-Aza-Bradykinin in serum was measured.

IRTK = IRTK (Homo sapiens, UniProt P06213); conditions: Kato et al. 2009; cited from earlier work
IRTK, sequence (P06213 28-1382): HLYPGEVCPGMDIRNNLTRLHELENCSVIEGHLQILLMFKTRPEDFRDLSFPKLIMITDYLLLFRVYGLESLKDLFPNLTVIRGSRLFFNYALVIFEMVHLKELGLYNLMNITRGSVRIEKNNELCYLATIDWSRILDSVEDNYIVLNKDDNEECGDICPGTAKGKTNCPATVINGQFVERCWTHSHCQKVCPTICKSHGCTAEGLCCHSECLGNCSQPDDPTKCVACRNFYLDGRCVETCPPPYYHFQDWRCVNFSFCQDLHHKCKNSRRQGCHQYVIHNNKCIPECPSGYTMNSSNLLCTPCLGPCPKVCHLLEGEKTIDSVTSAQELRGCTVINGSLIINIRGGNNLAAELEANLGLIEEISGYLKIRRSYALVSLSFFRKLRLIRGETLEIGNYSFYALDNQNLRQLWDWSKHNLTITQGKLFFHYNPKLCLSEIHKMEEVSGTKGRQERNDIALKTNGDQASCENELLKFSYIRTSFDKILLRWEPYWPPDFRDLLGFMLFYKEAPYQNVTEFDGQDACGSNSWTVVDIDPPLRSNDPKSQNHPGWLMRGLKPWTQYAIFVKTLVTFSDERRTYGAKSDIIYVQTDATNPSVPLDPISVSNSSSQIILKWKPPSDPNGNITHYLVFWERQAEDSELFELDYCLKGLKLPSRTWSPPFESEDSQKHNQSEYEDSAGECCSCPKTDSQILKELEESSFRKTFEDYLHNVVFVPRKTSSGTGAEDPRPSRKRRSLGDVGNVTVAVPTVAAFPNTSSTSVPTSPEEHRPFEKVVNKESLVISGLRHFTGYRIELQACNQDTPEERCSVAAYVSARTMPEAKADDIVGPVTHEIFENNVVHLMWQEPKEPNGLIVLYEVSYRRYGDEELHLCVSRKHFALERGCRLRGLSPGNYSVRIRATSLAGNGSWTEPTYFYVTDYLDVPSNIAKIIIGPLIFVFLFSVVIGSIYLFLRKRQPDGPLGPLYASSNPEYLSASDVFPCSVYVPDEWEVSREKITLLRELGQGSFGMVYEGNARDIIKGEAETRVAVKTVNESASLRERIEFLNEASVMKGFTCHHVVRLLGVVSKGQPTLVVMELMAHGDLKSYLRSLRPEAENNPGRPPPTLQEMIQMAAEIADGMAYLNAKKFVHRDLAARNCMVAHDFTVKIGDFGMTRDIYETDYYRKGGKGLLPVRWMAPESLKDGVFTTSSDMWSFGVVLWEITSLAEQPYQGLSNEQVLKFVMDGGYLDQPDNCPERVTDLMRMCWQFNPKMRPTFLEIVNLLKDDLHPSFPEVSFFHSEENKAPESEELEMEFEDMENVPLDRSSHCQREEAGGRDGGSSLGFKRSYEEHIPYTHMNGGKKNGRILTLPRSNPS

## NC(=O)N(Cc1ccccc1)NC(=O)N(Cc1ccccc1)NC(=O)[C@@H]1CCCN1C(=O)N(N)Cc1ccc(O)cc1 [K763]
OPRM-1 receptor
  affinity for OPRM-1 compared with Endomorphin-2 (in words): stronger affinity than Endomorphin-2
  binding to OPRM-1 receptor (in words): shown to bind

## N[C@@H](Cc1ccccc1)C(=O)N[C@@H](CO)C(=O)N[C@@H](CO)C(=O)N[C@@H](CCC(=O)O)C(=O)O [FSSE, reference compound]
[1]
  protection in animal studies (in words): protective
In vitro [2]
  half-life: 60 min
In vivo
  half-life: < 1 min
[3]; in vivo
  in vivo half-life: less than 5 minutes

## NC(=O)N(CCC(=O)O)NC(=O)[C@H](CO)NC(=O)[C@H](CO)NC(=O)N(N)Cc1ccccc1 [K883]
[1]
  protection in animal studies (in words): protective
[4]
  HMGB1-induced TNF secretion (in words): inhibits
[5]; 0.50 hr, individual rats, 1 mg/kg
  Plasma concentration: 3020 ng/mL and 2500 ng/mL and 3220 ng/mL
[5]; 1.0 hr, individual rats, 1 mg/kg
  Plasma concentration: 814 ng/mL and 1160 ng/mL and 1300 ng/mL
[5]; 2.0 hr, individual rats, 1 mg/kg
  Plasma concentration: 133 ng/mL and 130 ng/mL and 142 ng/mL
[5]; 4.0 hr, individual rats, 1 mg/kg
  Plasma concentration: 17.0 ng/mL and 15.1 ng/mL and 17.1 ng/mL
[5]; 6.0 hr, individual rats, 1 mg/kg
  Plasma concentration: 6.49 ng/mL and 4.04 ng/mL and 4.77 ng/mL
[5]; 8.0 hr, individual rats, 1 mg/kg
  Plasma concentration: 2.0 ng/mL and 0.871 ng/mL and 1.68 ng/mL
[5]; individual rats
  tmax: 0 h
[5]; individual rats, 1 mg/kg
  AUClast: 3807 ng·h/mL and 3749 ng·h/mL
[5]; mean of 3 rats
  tmax, Mean: 0 h
In vitro [2]
  half-life: > 900 min
mice; FIG. 8
  APAP-induced pro-inflammatory cytokines (in words): reduction
  APAP-induced serum liver enzymes (in words): reduction
mice; FIG. 9
  APAP-induced lethality in mice (in words): reduced
In vivo; in vivo half-life
  half-life: > 69 min
In vivo; iv
  level at 0.5 h: 2910 ng/mL
  level at 1 h: 1090 ng/mL
  level at 2 h: 135 ng/mL
  level at 4 h: 16.6 ng/mL
  level at 6 h: 5.1 ng/mL
  level at 8 h: 1.52 ng/mL
In vivo; iv, Mean, mean of 3 rats
  AUC(0-t): 3780 ng·h/mL
  MRT last: 33.4 min
In vivo; iv, individual rats
  AUC(0-t): 3770 ng·h/mL
  MRT last: 32.1 min

## NC(=O)C(Cc1ccccc1)NC(=O)C(Cc1ccccc1)NC(=O)[C@@H]1CCCN1C(=O)C(N)Cc1ccc(O)cc1 (stereo partly drawn) [Endomorphin-2]
[6]
  metabolised at 2 h: ~95%

## RPPGFSPFR [bradykinin]
In vitro [7]
  metabolised at 3 h: ~97%
[3]; background statement
  in vivo half-life: less than 1 minutes

## Ac-Asp1-Ile2-Tyr3-Glu4-Thr5-NH2
IRTK
  IRTK phosphorylation (in words): inhibit
